Consider six molecules from patent publication US20230285570A1, “THERAPEUTICALLY USEFUL CURE-PRO MOLECULES FOR E3 LIGASE MEDIATED DEGRADATION OF PROTEINS, AND METHODS OF MAKING AND USING THEM” (CORNELL UNIVERSITY, priority 2020, published 2023).

Entries after “also recorded” stand apart in the source; their conditions may differ.

Assay type in all cases: cell-based
In assay [1] the target is T1, c-MYC (Homo sapiens, UniProt P01106). Put plainly: CURE-PRO-mediated c-MYC degradation in HCT1116 cells, Western blot or WES. Also noted: HT29 cells (2.5×10^6) were treated for 24 h with the compounds solubilized in DMSO; endogenous in cells; host or cells: HT29. The settings on record: 1:1 with MDM2 ligand 8310, HCT1116, 24 h, 10 nM-10 μM each. Background: A western blot detects proteins with antibodies after separation by electrophoresis.

Assay [2] addresses T1, c-MYC. Put plainly: Summary of C-MYC degradation by CURE-PRO pairs, estimated from Western Blot or WES. Also noted: endogenous in cells; host or cells: HT29. The settings on record: for Degradation of C-MYC, combination with MDM2 ligand 8310: Table 11, aromatic 1,2-diol MYC ligand + 8310; for Degradation of C-MYC, combination with MDM2 ligand 8312: Table 11, aromatic 1,2-diol MYC ligand + 8312. The essentials: (§1)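 Degradation read-out from immunoblot with ECL, or WES capillary electrophoresis with HRP detection, of RIPA lysates. Cells (Namalwa, Ramos, HeLa, MCF7, HT29 or HCT116) were exposed to DMSO-solubilized compounds for 24 h; a check mark marks 30% to 70% or higher degradation.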

Assay [3] deals with T1, c-MYC. Put plainly: CURE-PRO-mediated c-MYC degradation in HCT1116 cells, Western blot or WES. Also noted: endogenous in cells; host or cells: HT29. The settings on record: 1:1 with MDM2 ligand 8312, HCT1116, 24 h, 10 nM-10 μM each. The protocol:
(§2) Namalwa, Ramosm HeLa, MCF7, or HT29 HCT116 cells (2.5-3×10^6) were treated for 24 hours with the indicated compounds solubilized in DMSO. The cells were washed in ice-cold PBS and were then lysed in RIPA lysis buffer (150 mM NaCl, 5 mM EDTA, 1% NP-40, 0.5% sodium deoxycholate, 0.1% SDS, 50 mM Tris, pH 8.0.) with Roche protease inhibitor complete cocktail and phosphatase inhibitors (10 mM sodium fluoride, 10 mM sodium pyrophosphate, 1 mM sodium orthovanadate and 20 mM β-glycerophosphate). The total protein concentrations were determined by Bradford Protein Assay (Pierce) and 10-20 μg of protein was loaded onto 4-15% Tris-Glycine gradient gels (Biorad). After standard gel electrophoresis, the separated proteins were transferred to PVDF membrane by wet transfer. The immunoblots were then blocked for 1 hour in 5% skim milk in TBST or 5% BSA in TBST, according to manufacturer's instructions, before an overnight incubation at 4° C. with indicated antibodies and membranes. Membranes were then incubated with the appropriate horseradish peroxidase-conjugated secondary antibodies (1:5,000 dilution) for 1 h at room temperature and the bands were visualized using the Clarity Max Western ECL Substrate (Biorad) and the ChemiDoc Imaging System (Biorad). Signal was detected with ECL Western Blotting Substrate (Pierce) and X-ray film processed with a Konica SRX-101 X-ray film processor or captured by Bio-Rad's Chemidoc Imaging system.
WES Simple analysis was performed on WES system (ProteinSimple-Biotechne) according to the manufacturer's instructions. Total protein concentrations of cell lysates were determined by the Pierce BCA kit (Thermo Fisher). 3 μL of 0.3 μg/μL of the protein lysate was loaded onto a 12- to 230-kDa WES assay plate (ProteinSimple) where 300 nL sample was withdrawn through a capillary, subjected to electrophoretic separation of proteins by size, and followed by the simultaneous, HRP-based detection of proteins using the Anti-Rabbit Detection Module (Proteinsimple: #DM-001). The electropherograms were checked then the automatic peak detection was manually corrected if it was required.
HCT1116 cells (2.5×10^6) were treated for 24 h with the compounds solubilized in DMSO. Compounds were added at 10 nM-10 μM each. Standardized protein samples were electrophoresed and imaged as described in the immunoblotting or WES (Proteinsimple) sections above. c-MYC monomers, MYC-N20 (FIG. 100, a 10074-G5 derivative comprising diol linkers), and MYC-N10 (FIG. 101), MYC-N6 (FIG. 102), and MYC-N9 (FIG. 103) (10058-F4 derivatives comprising diol linkers), and MDM2 ligands, 8310 and 8312 (Nutlin 3a derivatives comprising boronic acid linkers) were combined in a 1:1 ratio.
HCT1116 cells (2.5×10^6) were treated for 24 h with the compounds solubilized in DMSO. Compounds were added at 1 μM-10 μM each.

Assay [4] deals with T2, BRD4 (Homo sapiens, UniProt O60885). Briefly: Summary of BRD4 degradation by CURE-PRO pairs, estimated from Western Blot or WES. Also noted: endogenous in cells. The method, boiled down: as §1
For assay [5], the target named is T2, BRD4. Put plainly: CURE-PRO-mediated BRD4 degradation in MCF7 cells, Western blot. The arrangement: endogenous in cells. The settings on record: 1:1 with VHL ligand 8305, MCF7, 24 h, 100 nM-10 μM. On the procedure: as §2
MCF7 cells (3×10^6) were treated for 24 h with the compounds solubilized in DMSO. Compounds were added at 100 nM-10 μM. Standardized protein samples were electrophoresed and imaged as described in the Immunoblotting section above. FIG. 69 depicts the CURE-PRO-mediated BRD4 degradation for the BRD-E9 monomer and VHL ligands 8305 combined in a 1:1 ratio, and FIG. 70 depicts the CURE-PRO-mediated BRD4 degradation for the BRD-E20 monomer and 8305.
MCF7 cells (3×10^6) were treated for 24 h with the compounds solubilized in DMSO. Compounds were added at 1 μM-10 μM. Standardized protein samples were electrophoresed and imaged as described in the Immunoblotting section above. FIG. 71 depicts the CURE-PRO-mediated BRD4 degradation for the BRD-E50 monomer and VHL ligands 8305 and 8304 combined in a 1:1 ratio.

For assay [6], the target named is T1, c-MYC. Briefly: CURE-PRO-mediated c-MYC degradation in MCF7 cells, Western blot. Also noted: endogenous in cells. On the procedure:
as §2
MCF7 cells (3×10^6) were treated for 24 h with the compounds solubilized in DMSO. Compounds were added at 100 nM-10 μM each. Standardized protein samples were electrophoresed and imaged as described in the immunoblotting section above. c-MYC monomer, MYC-E33 (FIG. 99) (a 10058-F4 derivatives comprising boronic acid linkers), and VHL ligands, 8304 and 8305 (VH-298 derivatives comprising diol linkers) were combined in a 1:1 ratio.

In assay [7] the target is T1, c-MYC. Briefly: CURE-PRO-mediated c-MYC degradation in HT29 cells, Western blot. Also noted: endogenous in cells; host or cells: HT29. On the procedure: as §2
HT29 cells (2.5×10^6) were treated for 24 h with the compounds solubilized in DMSO. Compounds were added at 10 nM-10 μM each, as indicated in the description of the figures. Standardized protein samples were electrophoresed and imaged as described in the immunoblotting section above. c-MYC monomers (10058-F4 derivatives comprising catechol linkers), and CRBN ligands, 8048 and 8049 (pomalidomide derivatives comprising boronic acid linkers) combined in a 1:1 ratio.
HT29 cells (2.5×10^6) were treated for 24 h with the compounds solubilized in DMSO. Compounds were added at 100 nM-10 μM each.
HT29 cells (2.5×10^6) were treated for 24 h with the compounds solubilized in DMSO. Compounds were added at 100 nM-10 μM each. Standardized protein samples were electrophoresed and imaged as described in the immunoblotting section above. c-MYC monomer, MYC-E1, (a 10058-F4 derivative comprising boronic acid linkers), and CRBN ligands, 8046, 8047 and 8066 (pomalidomide derivatives comprising diol linkers) combined in a 1:1 ratio.
HT29 cells (2.5×10^6) were treated for 24 h with the compounds solubilized in DMSO. Compounds were added at 100 nM-10 μM each. Standardized protein samples were electrophoresed and imaged as described in the immunoblotting section above. c-MYC monomers, MYC-E6 (FIG. 90), MYC-E10 (FIG. 91), and MYC-E16 (FIG. 92) (10074-G5 derivatives comprising boronic acid linkers), and CRBN ligands, 8046, 8047 and 8066 (pomalidomide derivatives comprising diol linkers) combined in a 1:1 ratio.
HT29 cells (2.5×10^6) were treated for 24 h with the compounds solubilized in DMSO. Compounds were added at 10 nM-10 μM each. Standardized protein samples were electrophoresed and imaged as described in the immunoblotting section above. c-MYC monomer, MYC-N16 (FIG. 93) (10074-G5 derivatives comprising diol linkers), and VHL ligands, 8297 and 8298 (VH-298 derivatives comprising boronic acid linkers) were combined in a 1:1 ratio.
HT29 cells (2.5×10^6) were treated for 24 h with the compounds solubilized in DMSO. Compounds were added at 10 nM-10 μM each. Standardized protein samples were electrophoresed and imaged as described in the immunoblotting section above. c-MYC monomers, MYC-E7 (FIG. 96), MYC-E10 (FIG. 97), and MYC-E17 (FIG. 98), (10074-G5 derivatives comprising boronic acid linkers), and VHL ligands, 8297 and 8298 (VH-298 derivatives comprising diol linkers) were combined in a 1:1 ratio.

T1 sequence (P01106 whole entry): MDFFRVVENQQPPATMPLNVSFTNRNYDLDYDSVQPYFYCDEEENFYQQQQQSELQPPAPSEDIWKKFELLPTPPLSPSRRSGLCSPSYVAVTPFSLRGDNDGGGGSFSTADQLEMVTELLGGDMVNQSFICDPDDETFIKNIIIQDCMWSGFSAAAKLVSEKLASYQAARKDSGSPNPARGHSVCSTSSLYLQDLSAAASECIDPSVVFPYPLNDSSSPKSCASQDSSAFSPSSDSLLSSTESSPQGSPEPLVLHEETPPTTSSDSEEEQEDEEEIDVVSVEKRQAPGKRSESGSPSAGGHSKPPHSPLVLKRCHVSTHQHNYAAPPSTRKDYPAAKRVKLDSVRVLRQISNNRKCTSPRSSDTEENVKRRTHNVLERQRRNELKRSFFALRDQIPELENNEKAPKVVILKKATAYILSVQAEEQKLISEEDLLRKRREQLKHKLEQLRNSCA

For `CCc1ccc(/C=C2\SC(=O)N(CCCc3cccc(O)c3O)C2=O)cc1` [MYC-N6], the c-MYC degradation result on c-MYC [1] is “caused degradation of c-MYC protein; also recorded: Degradation was noted”. Further, at c-MYC [2], the “Degradation of C-MYC, combination with MDM2 ligand 8310” value (shortened to “Degradation … with MDM2 ligand 8310”) is “√ (A black check mark indicates efficacy of 30% to 70% or higher protein degradation)”.
Turning to `CCc1ccc(/C=C2\SC(=O)N(CCOCCNC(=O)c3cccc(O)c3O)C2=O)cc1` [MYC-N10], the c-MYC degradation result at c-MYC [1] and on c-MYC [3] was “caused degradation of c-MYC at higher concentrations; also recorded: Degradation was noted” in each case. At c-MYC [2], the “Degradation of C-MYC, combination with MDM2 ligand 8312” value is recorded as “√ (A black check mark indicates efficacy of 30% to 70% or higher protein degradation)”.
`COc1ccc2c(c1)C(c1ccc(Cl)cc1)=N[C@@H](CC(=O)NCc1ccc(B(O)O)cc1)c1nnc(C)n1-2` [BRD-E9, (4-((2-((4S)-6-(4-chlorophenyl)-8-methoxy-1-methyl-4H-benzo[f][1,2,4]triazolo[4,3-a][1,4]diazepin-4-yl)acetamido)methyl)phenyl)boronic acid]: at BRD4 [4] (Table 1, aryl-boronic acid BRD4 ligand + 8047), the “Degradation of BRD4, combination with CRBN ligand 8047” value was “√ (A black check mark indicates efficacy of 30% to 70% or higher protein degradation)”. Besides, on BRD4 [4] (Table 3, aryl-boronic acid BRD4 ligand + 8305), the “Degradation of BRD4, combination with VHL ligand 8305” value is given as “√ (A black check mark indicates efficacy of 30% to 70% or higher protein degradation)”. The BRD4 degradation result at BRD4 [5] was “there is degradation of BRD4”.
For `CCc1ccc(/C=C2\SC(=O)N(CCNC(=O)c3ccc(B(O)O)cc3)C2=O)cc1` [MYC-E33], the c-MYC degradation entry at c-MYC [6] (1:1 with VHL ligand 8304, MCF7, 24 h, 100 nM-10 μM each) is listed as “caused partial degradation of c-MYC”; on c-MYC [6] (1:1 with VHL ligand 8305, MCF7, 24 h, 100 nM-10 μM each) it was “no loss of c-MYC protein was observed”; at c-MYC [6] (c-MYC monomer alone, MCF7, 24 h, 100 nM-10 μM), “no loss of c-MYC protein was observed”.
In the case of `CCc1ccc(/C=C2\SC(=O)N(CCOCCNC(=O)c3ccc(O)c(O)c3)C2=O)cc1` [MYC-N9], the c-MYC degradation result on c-MYC [1] is “caused degradation of c-MYC at higher concentrations”; on c-MYC [7] (1:1 with CRBN ligand 8048, HT29, 24 h, 10 nM-10 μM each) it was “some degradation is noted; also recorded: caused degradation of c-MYC”; on c-MYC [7] (1:1 with CRBN ligand 8049, HT29, 24 h, 10 nM-10 μM each), “produces greater c-MYC degradation than 8048; also recorded: caused degradation of c-MYC”; at c-MYC [7] (c-MYC monomer alone, HT29, 24 h, 10 nM-10 μM) it was “there is no degradation of c-MYC”; on c-MYC [3] it was “caused degradation of c-MYC at higher concentrations”. Also, the “Degradation … with MDM2 ligand 8310” value on c-MYC [2] is “√ (A black check mark indicates efficacy of 30% to 70% or higher protein degradation)”.
With `O=C(NCCNC(=O)c1cccc(O)c1O)c1ccc(Nc2ccc([N+](=O)[O-])c3nonc23)cc1` [MYC-N20], at c-MYC [1], the c-MYC degradation entry is recorded as “caused degradation of c-MYC protein”. The c-MYC degradation result on c-MYC [3] was “negligible effects”. On c-MYC [2], the “Degradation … with MDM2 ligand 8310” value is reported as “√ (A black check mark indicates efficacy of 30% to 70% or higher protein degradation)” and the “Degradation of C-MYC, combination with MDM2 ligand 8312” value was “√ (A black check mark indicates efficacy of 30% to 70% or higher protein degradation)”.
